Data: ChEMBL document CHEMBL3124777, “Synthesis and biological evaluation of thiazoline derivatives as new antimicrobial and anticancer agents” (Eur J Med Chem, 2014)
Converted amounts (≈) assume the structure as drawn.

Assays:
[1] = tested on: Penicillium chrysogenum; assay: Antimicrobial activity against Penicillium chrysogenum NRRL 1951 after 48 to 72 hrs by microbroth dilution method; assay type: functional
[2] = tested on: C6; assay: Cytotoxicity against rat C6 cells assessed as cell viability at 100 ug/ml after 24 hrs by MTT assay relative to control; assay type: functional; details: C6, 24 h, read-out: Activity
[3] = tested on: C6; assay: Cytotoxicity against rat C6 cells assessed as cell viability at 6 ug/ml after 24 hrs by MTT assay relative to control; assay type: functional; details: C6, 24 h, read-out: Activity
[4] = tested on: Bacillus subtilis; assay: Antimicrobial activity against Bacillus subtilis NRS-744 after 18 to 24 hrs by microbroth dilution method; assay type: functional
[5] = tested on: C6; assay: Cytotoxicity against rat C6 cells assessed as cell viability at 25 ug/ml after 24 hrs by MTT assay relative to control; assay type: functional; details: C6, 24 h, read-out: Activity
[6] = tested on: Fusarium solani; assay: Antimicrobial activity against Fusarium solani NRRL 13414 after 48 to 72 hrs by microbroth dilution method; assay type: functional
[7] = tested on: Escherichia coli; assay: Antimicrobial activity against Escherichia coli ATCC 25922 after 18 to 24 hrs by microbroth dilution method; assay type: functional
[8] = tested on: Staphylococcus aureus; assay: Antimicrobial activity against Staphylococcus aureus NRRL B-767 after 18 to 24 hrs by microbroth dilution method; assay type: functional
[9] = tested on: Pseudomonas aeruginosa; assay: Antimicrobial activity against Pseudomonas aeruginosa […] after 18 to 24 hrs by microbroth dilution method; assay type: functional
[10] = tested on: Fusarium verticillioides; assay: Antimicrobial activity against Fusarium moniliforme NRRL 1866 after 48 to 72 hrs by microbroth dilution method; assay type: functional
[11] = tested on: Fusarium culmorum; assay: Antimicrobial activity against wild type Fusarium culmorum after 48 to 72 hrs by microbroth dilution method; assay type: functional
[12] = tested on: C6; assay: Cytotoxicity against rat C6 cells assessed as cell viability at 12 ug/ml after 24 hrs by MTT assay relative to control; assay type: functional; details: C6, 24 h, read-out: Activity
[13] = tested on: NIH3T3; assay: Cytotoxicity against mouse NIH/3T3 cells after 24 hrs by MTT assay; assay type: cell-based; details: NIH3T3, 24 h
[14] = tested on: Aspergillus ochraceus; assay: Antimicrobial activity against Aspergillus ochraceus NRRL 3174 after 48 to 72 hrs by microbroth dilution method; assay type: functional
[15] = tested on: Trichoderma harzianum; assay: Antimicrobial activity against Trichoderma harzianum NRRL 20565 after 48 to 72 hrs by microbroth dilution method; assay type: functional
[16] = tested on: Micrococcus luteus; assay: Antimicrobial activity against Micrococcus luteus NRLL B-4375 after 18 to 24 hrs by microbroth dilution method; assay type: functional
[17] = tested on: C6; assay: Cytotoxicity against rat C6 cells assessed as cell viability at 200 ug/ml after 24 hrs by MTT assay relative to control; assay type: functional; details: C6, 24 h, read-out: Activity
[18] = tested on: Aspergillus parasiticus; assay: Antimicrobial activity against Aspergillus parasiticus NRRL 465 after 48 to 72 hrs by microbroth dilution method; assay type: functional
[19] = tested on: C6; assay: Cytotoxicity against rat C6 cells assessed as cell viability at 50 ug/ml after 24 hrs by MTT assay relative to control; assay type: functional; details: C6, 24 h, read-out: Activity
[20] = tested on: C6; assay: Cytotoxicity against rat C6 cells after 24 hrs by MTT assay; assay type: functional, cell-based; details: C6, 24 h
[21] = tested on: Listeria monocytogenes; assay: Antimicrobial activity against Listeria monocytogenes ATCC 7644 after 18 to 24 hrs by microbroth dilution method; assay type: functional
[22] = tested on: Candida albicans; assay: Antimicrobial activity against Candida albicans ATCC 22019 after 18 to 24 hrs by microbroth dilution method; assay type: functional

Structure (SMILES)	MIC [1] [µg/mL]	viability at 100 µg/mL [2] [%]	viability at 6 µg/mL [3] [%]	MIC [4] [µg/mL]	viability at 25 µg/mL [5] [%]	MIC [6] [µg/mL]	MIC [7] [µg/mL]	MIC [8] [µg/mL]	MIC [9] [µg/mL]	MIC [10] [µg/mL]	MIC [11] [µg/mL]	viability at 12 µg/mL [12] [%]	IC50 [13] [µg/mL]	MIC [14] [µg/mL]	MIC [15] [µg/mL]	MIC [16] [µg/mL]	viability at 200 µg/mL [17] [%]	MIC [18] [µg/mL]	MIC [21] [µg/mL]	MIC [22] [µg/mL]	other results
O=C(CSc1nnnn1-c1ccccc1)N/N=c1/scc(-c2ccc(Cl)cc2)n1-c1ccccc1	250 (≈ 481 µM)	54.3	77.4	250 (≈ 481 µM)	62.3	250 (≈ 481 µM)	125 (≈ 240 µM)	250 (≈ 481 µM)	125 (≈ 240 µM)	250 (≈ 481 µM)	250 (≈ 481 µM)	69.3	313 (≈ 602 µM)	250 (≈ 481 µM)	125 (≈ 240 µM)	125 (≈ 240 µM)	52.4	250 (≈ 481 µM)	250 (≈ 481 µM)	250 (≈ 481 µM)	viability at 50 µg/mL [19]: 60%; IC50 [20]: > 200 µg/mL
Cc1nnc(SCC(=O)N/N=c2/scc(-c3ccccc3)n2-c2ccccc2)s1	250 (≈ 569 µM)	61.8	72.4	500 (≈ 1140 µM)	65.9	250 (≈ 569 µM)	250 (≈ 569 µM)	500 (≈ 1140 µM)	250 (≈ 569 µM)	250 (≈ 569 µM)	250 (≈ 569 µM)	72.5	197 (≈ 447 µM)	250 (≈ 569 µM)	125 (≈ 284 µM)	250 (≈ 569 µM)	59.2	250 (≈ 569 µM)	250 (≈ 569 µM)	250 (≈ 569 µM)	viability at 50 µg/mL [19]: 63.9%; IC50 [20]: > 200 µg/mL
N#Cc1ccc(-c2cs/c(=N/NC(=O)CSc3nnnn3-c3ccccc3)n2-c2ccccc2)cc1	250 (≈ 490 µM)	59.8	78.8	250 (≈ 490 µM)	64.2	250 (≈ 490 µM)	250 (≈ 490 µM)	500 (≈ 979 µM)	250 (≈ 490 µM)	250 (≈ 490 µM)	250 (≈ 490 µM)	74.1	453 (≈ 888 µM)	250 (≈ 490 µM)	250 (≈ 490 µM)	250 (≈ 490 µM)	54	250 (≈ 490 µM)	250 (≈ 490 µM)	250 (≈ 490 µM)	viability at 50 µg/mL [19]: 61.1%; IC50 [20]: > 200 µg/mL
Cc1ccc(-c2cs/c(=N/NC(=O)CSc3ncccn3)n2-c2ccccc2)cc1	250 (≈ 577 µM)	45.9	93.2	500 (≈ 1150 µM)	82.7	250 (≈ 577 µM)	250 (≈ 577 µM)	250 (≈ 577 µM)	250 (≈ 577 µM)	250 (≈ 577 µM)	250 (≈ 577 µM)	83	> 500	250 (≈ 577 µM)	250 (≈ 577 µM)	250 (≈ 577 µM)	43.7	250 (≈ 577 µM)	250 (≈ 577 µM)	250 (≈ 577 µM)	viability at 50 µg/mL [19]: 64.4%; IC50 [20]: 85 µg/mL (≈ 196 µM)
COc1ccc(-c2cs/c(=N/NC(=O)CSc3ncccn3)n2-c2ccccc2)cc1	250 (≈ 556 µM)	51.5	89.6	250 (≈ 556 µM)	74	250 (≈ 556 µM)	250 (≈ 556 µM)	250 (≈ 556 µM)	250 (≈ 556 µM)	250 (≈ 556 µM)	250 (≈ 556 µM)	78.4	450 (≈ 1000 µM)	250 (≈ 556 µM)	250 (≈ 556 µM)	250 (≈ 556 µM)	37.6	250 (≈ 556 µM)	250 (≈ 556 µM)	250 (≈ 556 µM)	viability at 50 µg/mL [19]: 66.5%; IC50 [20]: 102 µg/mL (≈ 226 µM)
O=C(CSc1ncccn1)N/N=c1/scc(-c2ccc(Br)cc2)n1-c1ccccc1	250 (≈ 502 µM)	67.6	76.4	250 (≈ 502 µM)	72.3	250 (≈ 502 µM)	250 (≈ 502 µM)	500 (≈ 1000 µM)	250 (≈ 502 µM)	250 (≈ 502 µM)	250 (≈ 502 µM)	72.1	273 (≈ 548 µM)	250 (≈ 502 µM)	250 (≈ 502 µM)	250 (≈ 502 µM)	63.2	250 (≈ 502 µM)	250 (≈ 502 µM)	250 (≈ 502 µM)	viability at 50 µg/mL [19]: 69%; IC50 [20]: > 200 µg/mL
Cc1ccc(-c2cs/c(=N/NC(=O)CSc3nnnn3C)n2-c2ccccc2)cc1	250 (≈ 571 µM)	39.7	88	500 (≈ 1140 µM)	60.7	250 (≈ 571 µM)	250 (≈ 571 µM)	250 (≈ 571 µM)	250 (≈ 571 µM)	250 (≈ 571 µM)	125 (≈ 286 µM)	68.8	243 (≈ 556 µM)	250 (≈ 571 µM)	125 (≈ 286 µM)	250 (≈ 571 µM)	39.7	250 (≈ 571 µM)	250 (≈ 571 µM)	250 (≈ 571 µM)	viability at 50 µg/mL [19]: 44.3%; IC50 [20]: 36.3 µg/mL (≈ 83 µM)
Cn1nnnc1SCC(=O)N/N=c1/scc(-c2ccc([N+](=O)[O-])cc2)n1-c1ccccc1	250 (≈ 534 µM)	64.1	80.4	500 (≈ 1070 µM)	69.3	250 (≈ 534 µM)	250 (≈ 534 µM)	250 (≈ 534 µM)	250 (≈ 534 µM)	250 (≈ 534 µM)	250 (≈ 534 µM)	76.2	167 (≈ 356 µM)	250 (≈ 534 µM)	125 (≈ 267 µM)	250 (≈ 534 µM)	58.6	250 (≈ 534 µM)	250 (≈ 534 µM)	250 (≈ 534 µM)	viability at 50 µg/mL [19]: 69.2%; IC50 [20]: > 200 µg/mL
O=C(CSc1ncccn1)N/N=c1/scc(-c2ccc(F)cc2)n1-c1ccccc1	250 (≈ 571 µM)	53.4	84	500 (≈ 1140 µM)	63.9	250 (≈ 571 µM)	250 (≈ 571 µM)	500 (≈ 1140 µM)	250 (≈ 571 µM)	250 (≈ 571 µM)	250 (≈ 571 µM)	77.4	> 500	250 (≈ 571 µM)	250 (≈ 571 µM)	250 (≈ 571 µM)	32.2	250 (≈ 571 µM)	250 (≈ 571 µM)	250 (≈ 571 µM)	viability at 50 µg/mL [19]: 55.5%; IC50 [20]: 110 µg/mL (≈ 251 µM)
Cn1cnnc1SCC(=O)N/N=c1/scc(-c2ccc(C#N)cc2)n1-c1ccccc1	250 (≈ 559 µM)	55.2	70.2	250 (≈ 559 µM)	58.8	250 (≈ 559 µM)	250 (≈ 559 µM)	250 (≈ 559 µM)	250 (≈ 559 µM)	250 (≈ 559 µM)	250 (≈ 559 µM)	62.6	153 (≈ 343 µM)	250 (≈ 559 µM)	125 (≈ 279 µM)	250 (≈ 559 µM)	52.6	250 (≈ 559 µM)	250 (≈ 559 µM)	250 (≈ 559 µM)	viability at 50 µg/mL [19]: 58.8%; IC50 [20]: > 200 µg/mL
O=C(CSc1ncccn1)N/N=c1/scc(-c2ccc(Cl)cc2)n1-c1ccccc1	250 (≈ 551 µM)	45.5	95.9	500 (≈ 1100 µM)	91.1	250 (≈ 551 µM)	250 (≈ 551 µM)	500 (≈ 1100 µM)	250 (≈ 551 µM)	250 (≈ 551 µM)	250 (≈ 551 µM)	91.6	397 (≈ 874 µM)	250 (≈ 551 µM)	250 (≈ 551 µM)	250 (≈ 551 µM)	39.7	250 (≈ 551 µM)	250 (≈ 551 µM)	250 (≈ 551 µM)	viability at 50 µg/mL [19]: 61.8%; IC50 [20]: 83.3 µg/mL (≈ 183 µM)
Cc1nnc(SCC(=O)N/N=c2/scc(-c3ccc(Br)cc3)n2-c2ccccc2)s1	250 (≈ 482 µM)	–	–	500 (≈ 964 µM)	–	250 (≈ 482 µM)	250 (≈ 482 µM)	500 (≈ 964 µM)	250 (≈ 482 µM)	250 (≈ 482 µM)	250 (≈ 482 µM)	–	55 (≈ 106 µM)	250 (≈ 482 µM)	125 (≈ 241 µM)	250 (≈ 482 µM)	–	250 (≈ 482 µM)	250 (≈ 482 µM)	250 (≈ 482 µM)	–
Cn1nnnc1SCC(=O)N/N=c1/scc(-c2ccc(Cl)cc2)n1-c1ccccc1	250 (≈ 546 µM)	–	–	250 (≈ 546 µM)	–	250 (≈ 546 µM)	250 (≈ 546 µM)	500 (≈ 1090 µM)	250 (≈ 546 µM)	250 (≈ 546 µM)	250 (≈ 546 µM)	–	40 (≈ 87.3 µM)	250 (≈ 546 µM)	250 (≈ 546 µM)	250 (≈ 546 µM)	–	250 (≈ 546 µM)	250 (≈ 546 µM)	250 (≈ 546 µM)	–
